This note sets out measurements from patent US5760032A, “Thienylazole compound and thienotriazolodiazepine compound” (Yoshitomi Pharmaceutical Industries, Ltd., priority 1994, dated 1998).

One experiment has as its target T1, CCK-B receptor (Brain) (Rattus norvegicus, UniProt P30553).
T1 construct: from tissue; host or cells: rat cerebral cortex membranes
T1 sequence (P30553 1-452): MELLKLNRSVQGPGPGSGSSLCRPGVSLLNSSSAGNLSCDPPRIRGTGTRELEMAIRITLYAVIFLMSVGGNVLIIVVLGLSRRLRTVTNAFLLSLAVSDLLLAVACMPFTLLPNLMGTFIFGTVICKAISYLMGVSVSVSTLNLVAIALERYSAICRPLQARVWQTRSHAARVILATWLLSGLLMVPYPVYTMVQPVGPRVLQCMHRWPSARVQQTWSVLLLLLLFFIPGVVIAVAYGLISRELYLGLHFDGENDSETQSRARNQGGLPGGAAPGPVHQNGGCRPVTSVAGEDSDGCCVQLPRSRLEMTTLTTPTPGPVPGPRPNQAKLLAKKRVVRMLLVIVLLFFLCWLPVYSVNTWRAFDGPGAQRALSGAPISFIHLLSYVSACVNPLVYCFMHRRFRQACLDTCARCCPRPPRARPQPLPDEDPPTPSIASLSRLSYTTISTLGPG
The experiment in a line: Binding to CCK receptor, cerebral cortex membranes, inhibition of 125I-CCK-8 specific binding. The conditions noted are these: pH 6.5, 20° C., 30 minutes. How it is done: (§1) Whole pancreas was removed from male Wister rats. Fat tissue was removed and the pancreas was homogenized (Blinkman Polytron PT20) in 10 mM MES buffer (0.02% Bacitracin, 0.02% soy bean-derived trypsin inhibitor, 0.0001% phenylmethanesulfonyl fluoride, pH 6.5). The homogenate was passed through a nylon cloth (120 mesh) and the filtrate was centrifuged at 40,000×g for 15 minutes. The obtained sediment was homogenized in Tris buffer and centrifuged in the same manner as above. The sediment was suspended in a buffer for binding assay (50 mM MES containing 130 mM sodium chloride, 4.7 mM potassium chloride, 5 mM magnesium chloride, 0.02% Bacitracin, 0.0001% phenylmethanesulfonyl fluoride, pH 6.5) and used as a peripheral receptor source. In the case of central tissue, rat cerebral cortex was used for the preparation by suspending same in a buffer (pH 6.5) containing 5 mM magnesium chloride, 1 mM EGTA [ethylene glycol bis(2-aminoethylether)tetraacetic acid], 360 mM sodium chloride, 15 mM potassium chloride, 20 mM HEPES (N-2-hydroxyethylpiperazine-N'-2-ethanesulfonic acid) and 0.25 mg/ml Bacitracin. For binding assay, 50 μl buffer (for total binding use) and unlabelled CCK-8 sulfate (for non-specific binding) having a final concentration of 1 μM or a test compound (^125 I-CCK-8, 63-67 TBq/mmol, 40,000-50,000 cpm, 50 μl) were added to a membrane suspension (450 μl, containing 100 μg as protein). The reaction mixture was incubated at 20° C. for 30 minutes and filtered through a glass fiber filter (Whatman G/FB) by suction. Immediately thereafter, the filter was washed three times with ice-cold Tris buffer (2.5 ml) and the radioactivity on the filter was determined.
(§2) The effects of the test compound on the CCK receptor binding were evaluated by the concentration (IC50, nM) necessary for inhibiting the specific binding by 50%, which was obtained by calculating the inhibition ratio by the following formula: [formula]
(§3) The results of the effects of the test compounds on the CCK receptor binding are shown in the following

The target of experiment [1] is T2, CCK-A receptor (Pancreas) (Rattus norvegicus, UniProt P30551).
T2 construct: Whole pancreas was removed from male Wister rats; from tissue; host or cells: rat pancreas membranes (male Wistar rats)
T2 sequence (P30551 1-444): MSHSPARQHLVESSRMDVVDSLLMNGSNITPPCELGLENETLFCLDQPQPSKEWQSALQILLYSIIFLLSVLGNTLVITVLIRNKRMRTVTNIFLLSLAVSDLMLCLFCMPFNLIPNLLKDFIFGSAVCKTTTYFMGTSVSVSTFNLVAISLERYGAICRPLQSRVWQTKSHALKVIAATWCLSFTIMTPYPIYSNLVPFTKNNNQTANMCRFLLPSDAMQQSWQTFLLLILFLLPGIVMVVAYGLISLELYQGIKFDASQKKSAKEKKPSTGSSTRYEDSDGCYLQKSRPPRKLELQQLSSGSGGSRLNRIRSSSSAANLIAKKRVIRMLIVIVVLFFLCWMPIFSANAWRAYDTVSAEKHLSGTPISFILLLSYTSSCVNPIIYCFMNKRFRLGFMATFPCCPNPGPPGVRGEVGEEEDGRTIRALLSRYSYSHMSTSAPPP
The experiment is described as follows: Binding to CCK receptor, pancreas membranes, inhibition of 125I-CCK-8 specific binding. How it is done: as §1, §2, §3

Experiment [2] deals with CCK-8-induced secretion of pancreatic juice (trypsin secretion). The experiment in a line: Effects on CCK-induced secretion of pancreatic juice in guinea pig under anesthesia. To be noted: 300 μg/kg intravenous, 5 minutes before second CCK-8 (0.1 μg/kg i.v.); male guinea pigs under urethane anesthesia. Type of experiment: in vivo. How it is done: Effects on CCK-induced secretion of pancreatic juice in guinea pig under anesthesia
Male guinea pigs weighing about 650 g were anesthetized by subcutaneous administration of urethane (1.6 g/kg), and a cannula for injection of perfusing solution was inserted into the pyloric part of stomach and a discharge cannula was inserted at a position 2 cm distal from Treitz ligament. Duodenum was perfused with physiological saline at a rate of 8 ml/15 min, and trypsin secretion in the perfusate was determined. For the determination, Na-benzoyl-arginine p-nitroanilide (BAPNA) was used as a synthetic substrate and spectrophotometer was used for the determination. Secretion of pancreatic juice was induced by an intravenous administration of CCK-8 (0.1 μg/kg), and 60 minutes later, CCK-8 was administered again. The inhibition ratio of the test compound which was intravenously administered at 5 minutes before the second administration of CCK-8 was calculated by the following formula: [formula]
The effects of the test compounds on inhibition of secretion of pancreatic juice induced by CCK receptor in guinea pig under anesthesia are shown in the following

Setting [3] is: rat pancreas membranes, 125I-CCK-8, pH 6.5, 20° C., 30 minutes, read-out: Pancreas (CCK-A) IC50.

Molecules are shown by their SMILES. Like-named read-outs stand apart in the source and are kept apart here.

One may read the IC50 as the concentration at which inhibition is half-maximal.

With `CCc1cc(C(=O)c2ccccc2Cl)c(-n2c(C)nnc2CNC(=O)c2ccc(Cl)c(Cl)c2)s1` [Example 11, N-(4-(3-(2-chlorobenzoyl)-5-ethylthiophen-2-yl)-5-methyl[1,2,4]triazol-3-ylmethyl)-3,4-dichlorobenzamide], the IC50 at CCK-B receptor (Brain) is more than 1000 nM; in experiment [1] (setting [3]), 7.5 nM.

In the case of `CCc1cc(C(=O)c2ccccc2Cl)c(-n2c(C)nnc2CNC(=O)c2cc3ccccc3[nH]2)s1` [Example 14, N-(4-(3-(2-chlorobenzoyl)-5-ethylthiophen-2-yl)-5-methyl[1,2,4]triazol-3-ylmethyl)indole-2-carboxamide], the IC50 on CCK-B receptor (Brain) was more than 1000 nM; in experiment [1] (setting [3]) it was 3.7 nM.

Take `CCc1cc(C(=O)c2ccccc2Cl)c(-n2c(C)nnc2CNC(=O)c2cc3ccccc3n2CC(=O)O)s1` [Example 19, 2-(4-(3-(2-chlorobenzoyl)-5-ethylthiophen-2-yl)-5-methyl[1,2,4]triazol-3-ylmethylcarbamoyl)indole-1-acetic acid]: the figures for the IC50 (on CCK-B receptor (Brain); in experiment [1] (setting [3])) were more than 1000 nM and 10.6 nM, respectively. For the same molecule, the “Inhibition of CCK-8-induced secretion of pancreatic juice” value (“Inhibition” below) in experiment [2] worked out at 81.9 ± 5.9%.

In the case of `CCc1cc(C(=O)c2ccccc2Cl)c(-n2c(C)nnc2CNC(=O)Nc2cccc(C)c2)s1` [Example 26, N-(4-(3-(2-chlorobenzoyl)-5-ethylthiophen-2-yl)-5-methyl[1,2,4]triazol-3-ylmethyl)-N'-(3-methylphenyl)urea], the IC50 at CCK-B receptor (Brain) is more than 1000 nM; in experiment [1] (setting [3]), 5.6 nM.

For `CCc1cc(C(=O)c2ccccc2Cl)c(-n2c(C)nnc2CNC(=O)Nc2cccc(OC)c2)s1` [Example 27, N-(4-(3-(2-chlorobenzoyl)-5-ethylthiophen-2-yl)-5-methyl[1,2,4]triazol-3-ylmethyl)-N'-(3-methoxyphenyl)urea], the IC50 on CCK-B receptor (Brain) was more than 1000 nM; in experiment [1] (setting [3]) it was 4.8 nM.

In the case of `CCc1cc2c(s1)-n1c(nnc1CNC(=O)c1ccc(Cl)c(Cl)c1)CN=C2c1ccccc1Cl` [Example 59, N-(4-(2-chlorophenyl)-2-ethyl-6H-thieno[3,2-f] [1,2,4]triazolo[4,3-a] [1,4]diazepin-9-ylmethyl)-3,4-dichlorobenzamide], the IC50 at CCK-B receptor (Brain) was more than 1000 nM; in experiment [1], 13 nM.

For the molecule `CCc1cc(C(=O)c2ccccc2Cl)c(-n2c(Br)nnc2CNC(=O)c2cc3ccccc3[nH]2)s1` [Example 72, N-(3-bromo-4-(3-(2-chlorobenzoyl)-5-ethylthiophen-2-yl) [1,2,4]triazol-5-ylmethyl)indole-2-carboxamide], the results for the IC50 (on CCK-B receptor (Brain); in experiment [1] (setting [3])) were more than 1000 nM and 3.2 nM, respectively.

For `Cc1nnc(CNC(=O)c2cc3ccccc3[nH]2)n1-c1sc(C(=O)O)cc1C(=O)c1ccccc1Cl` [Example 252, (3-(2-chlorobenzoyl)-2-(3-(2-indolecarbonylaminomethyl)-5-methyl[1,2,4]triazol-4-yl)thiophen-5-yl)carboxylic acid], the IC50 at CCK-B receptor (Brain) was more than 1000 nM; in experiment [1] (setting [3]), 6.6 nM. Further, the “Inhibition” value in experiment [2] worked out at 82.6 ± 2.6%.

For the molecule `CCc1cc2c(s1)-n1c(nnc1[C@@H](CCC(=O)O)NC(=O)c1ccc(Cl)c(Cl)c1)CN=C2c1ccccc1Cl` [Example 277, (R)-(-)-4-(3,4-dichlorobenzoylamino)-4-(4-(2-chlorophenyl)-2-ethyl-6H-thieno[3,2-f] [1,2,4]triazolo[4,3-a] [1,4]diazepin-9-yl)butanoic acid], the IC50 at CCK-B receptor (Brain) was more than 1000 nM; in experiment [1] it was 9.6 nM. Further, in experiment [2], the “Inhibition” value is given as 85.1 ± 12.1%.

Regarding `CCc1cc2c(s1)-n1c(nnc1[C@@H](CCC(=O)O)NC(=O)c1cc3ccccc3[nH]1)CN=C2c1ccccc1Cl` [Example 280, (R)-(-)-4-(4-(2-chlorophenyl)-2-ethyl-6H-thieno[3,2-f] [1,2,4]triazolo[4,3-a] [1,4]diazepin-9-yl)-4-(1H-indole-2-carboxamide)butanoic acid], the figures for the IC50 (on CCK-B receptor (Brain); in experiment [1]) were more than 1000 nM and 2.7 nM, respectively. Further, the “Inhibition” value in experiment [2] is on record as 78.1 ± 7.6%.

As to `CCc1cc(C(=O)c2ccccc2Cl)c(-n2c(C)nnc2CNC(=O)c2ccc(Cl)cc2N)s1` [Example 338, 2-amino-4-chloro-N-(4-(3-(2-chlorobenzoyl)-5-ethylthiophen-2-yl)-5-methyl[1,2,4]triazol-3-ylmethyl)benzamide], the IC50 is more than 1000 nM at CCK-B receptor (Brain) and 7.6 nM in experiment [1] (setting [3]).
